Structures can show the parent of a compound that is named as a salt.

Here are results for 33 compounds from US9533978B2 (AstraZeneca AB, priority 2009, dated 2017).

This experiment deals with T1, Recombinant human TLR7 (Homo sapiens, UniProt Q9NYK1).
T1 construct: expressed in transfected cells; host or cells: HEK293 cell line stably expressing the pNiFty2-SEAP reporter plasmid; TLR7 in vector pUNO, blasticidin selection
T1 sequence (Q9NYK1 27-1049): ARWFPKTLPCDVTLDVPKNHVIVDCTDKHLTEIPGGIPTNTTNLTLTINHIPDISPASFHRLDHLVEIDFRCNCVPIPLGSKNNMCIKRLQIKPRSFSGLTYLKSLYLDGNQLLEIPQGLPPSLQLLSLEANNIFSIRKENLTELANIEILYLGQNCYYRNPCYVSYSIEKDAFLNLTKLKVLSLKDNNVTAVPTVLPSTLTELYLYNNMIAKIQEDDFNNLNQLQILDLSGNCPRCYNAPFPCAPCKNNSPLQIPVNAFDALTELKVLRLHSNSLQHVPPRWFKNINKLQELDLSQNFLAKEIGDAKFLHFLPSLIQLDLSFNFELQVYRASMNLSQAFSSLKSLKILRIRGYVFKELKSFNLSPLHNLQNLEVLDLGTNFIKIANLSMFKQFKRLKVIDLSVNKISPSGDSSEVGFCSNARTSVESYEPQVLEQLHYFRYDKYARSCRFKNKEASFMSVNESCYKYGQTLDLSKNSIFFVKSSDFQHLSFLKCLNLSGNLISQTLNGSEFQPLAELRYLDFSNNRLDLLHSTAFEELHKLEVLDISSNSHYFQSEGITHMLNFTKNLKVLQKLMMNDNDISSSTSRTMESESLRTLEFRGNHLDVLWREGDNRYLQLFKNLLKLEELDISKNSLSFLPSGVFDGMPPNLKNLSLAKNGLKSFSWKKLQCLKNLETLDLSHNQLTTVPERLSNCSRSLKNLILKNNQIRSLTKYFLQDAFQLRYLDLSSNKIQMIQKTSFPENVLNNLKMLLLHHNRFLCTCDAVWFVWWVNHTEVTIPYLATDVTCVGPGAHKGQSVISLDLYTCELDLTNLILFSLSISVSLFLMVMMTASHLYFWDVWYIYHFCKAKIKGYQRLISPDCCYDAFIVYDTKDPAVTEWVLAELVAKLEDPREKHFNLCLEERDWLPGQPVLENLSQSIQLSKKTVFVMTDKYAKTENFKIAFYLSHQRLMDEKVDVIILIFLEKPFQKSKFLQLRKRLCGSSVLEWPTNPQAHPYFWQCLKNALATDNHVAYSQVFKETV
The experiment in a line: Human TLR7 assay (HEK293 SEAP reporter). In kind it is cell-based. The note with it: degree of TLR7 activation; SEAP induction in HEK293 cells stably expressing recombinant human TLR7 and pNiFty2-SEAP reporter, overnight incubation at 37° C., 0.1% (v/v) DMSO. On the procedure:
The ability of compounds to activate TLR7 in vitro was assessed using the human TLR7 assay described below.
Recombinant human TLR7 was stably expressed in a HEK293 cell line already stably expressing the pNiFty2-SEAP reporter plasmid; integration of the reporter gene was maintained by selection with the antibiotic zeocin. The most common variant sequence of human TLR7 (represented by the EMBL sequence AF240467) was cloned into the mammalian cell expression vector pUNO and transfected into this reporter cell-line. Transfectants with stable expression were selected using the antibiotic blasticidin. In this reporter cell-line, expression of secreted alkaline phosphatase (SEAP) is controlled by an NFkB/ELAM-1 composite promoter comprising five NFkB sites combined with the proximal ELAM-1 promoter. TLR signaling leads to the translocation of NFkB and activation of the promoter results in expression of the SEAP gene. TLR7-specific activation was assessed by determining the level of SEAP produced following overnight incubation of the cells at 37° C. with the standard compound in the presence of 0.1% (v/v) dimethylsulfoxide (DMSO). Concentration dependent induction of SEAP production by compounds was expressed as the concentration of compound which produced half of the maximal level of SEAP induction for that compound (EC50).
As a reminder, the EC50 is the concentration that produces a half-maximal response. Turning to `CCCCCNc1nc(N)nc(C)c1Cc1cccc(O)c1` [Example 24, 3-((2-Amino-4-methyl-6-(pentylamino)pyrimidin-5-yl)methyl)phenol], the concentration for a half-maximal effect (EC50) was 5010 nM.
`CCCCCNc1nc(N)nc(C)c1Cc1ccc(O)cc1` [Example 2, 4-(2-Amino-4-methyl-6-pentylamino-pyrimidin-5-ylmethyl)-phenol]: the EC50 is 1260 nM.
For `CCCCCNc1nc(N)nc(C)c1Cc1cccc(OCCCN(C)C)c1` [Example 25], the EC50 is 794 nM.
Take `CCCCCNc1nc(N)nc(C)c1Cc1ccccc1OCCCN(C)C` [Example 22]: the EC50 was 1260 nM.
The term pEC50 denotes the negative decadic logarithm of the EC50, by convention in mol/L. Consider “5-(4-(2-(Dimethylamino)ethoxy)benzyl)-6-methyl-N-pentylpyrimidine-2,4-diamine [Example 3]”, for which the pEC50 is reported as 7.2.
Take `CCCCCNc1nc(N)nc(C)c1Cc1cccc(CCCN(C)C)c1` [Example 32, 5-(3-(3-(Dimethylamino)propyl)benzyl)-6-methyl-N^4-pentylpyrimidine-2,4-diamine]: the EC50 was 251 nM.
Still for that read-out and setting: under `CCCC[C@@H](CCO)Nc1nc(N)nc(C)c1Cc1ccc(C(=O)OC)cc1OC` [Example 14, (S)-Methyl 4-((2-amino-4-(1-hydroxyheptan-3-ylamino)-6-methyl-pyrimidin-5-yl)methyl)-3-methoxybenzoate] stands 10 nM; under `CCCCCNc1nc(N)nc(C)c1Cc1ccc(OCCCO)cc1` [Example 8, 3-(4-((2-Amino-4-methyl-6-(pentylamino)pyrimidin-5-yl)methyl)-phenoxy)propan-1-ol], 501 nM; under `CCCCCNc1nc(N)nc(C)c1Cc1ccc(C(=O)OC)cc1OC` [Example 12, Methyl 4-((2-amino-4-methyl-6-(pentylamino)pyrimidin-5-yl)methyl)-3-methoxybenzoate], 63.1 nM.
As to `CCCCCNc1nc(N)nc(C)c1Cc1ccc(OCCN(C)Cc2ccccc2)cc1` [Example 7, 5-(4-(2-(Benzyl(methyl)amino)ethoxy)benzyl)-6-methyl-N^4-pentyl-pyrimidine-2,4-diamine], the EC50 was 631 nM.
On to `CCCCCNc1nc(N)nc(C)c1Cc1ccc(OCCCN(C)C)cc1` [Example 4], for which the EC50 is 63.1 nM.
The same measure, in the same setting: with `CCCCCNc1nc(N)nc(C)c1Cc1ccc(OCCCN2CCN(C)CC2)cc1` [Example 10, 6-Methyl-5-(4-(3-(4-methylpiperazin-1-yl)propoxy)benzyl)-V-pentylpyrimidine-2,4-diamine] the figure was 79.4 nM; with `CCCCCNc1nc(N)nc(C)c1Cc1ccc(OCCCN(C)C)cc1C` [Example 33, 5-(4-(3-(Dimethylamino)propoxy)-2-methylbenzyl)-6-methyl-N^4-pentylpyrimidine-2,4-diamine], 251 nM; with `CCC[C@@H](CO)Nc1nc(N)nc(C)c1Cc1ccc(C(=O)OC)cc1OC` [Example 13, (S)-Methyl 4-((2-amino-4-(1-hydroxypentan-2-ylamino)-6-methyl-pyrimidin-5-yl)methyl)-3-methoxybenzoate], 100 nM.
Still for that read-out and setting: under `CCCCCNc1nc(N)nc(C)c1Cc1ccc(C(=O)OC)cc1F` [Example 18, Methyl 4-((2-amino-4-methyl-6-(pentylamino)pyrimidin-5-yl)methyl)-3-fluorobenzoate] stands 2000 nM; under `CCCCCNc1nc(N)nc(C)c1Cc1ccc(CCCCN(C)C)cc1OC` [Example 39, 5-(4-(4-(Dimethylamino)butyl)-2-methoxybenzyl)-6-methyl-N^4-pentylpyrimidine-2,4-diamine], 3.98 nM; under `CCCCCNc1nc(N)nc(C)c1Cc1ccc(OCCCO)cc1OC` [Example 36, 3-(4-((2-Amino-4-methyl-6-(pentylamino)pyrimidin-5-yl)methyl)-3-methoxyphenoxy)propan-1-ol], 50.1 nM.
Turning to `CCCCCNc1nc(N)nc(C)c1Cc1cccc(OCCN2CCCCC2)c1` [Example 26, 6-Methyl-N^4-pentyl-5-(3-(2-(piperidin-1-yl)ethoxy)benzyl)pyrimidine-2,4-diamine], the EC50 was 631 nM.
Same read-out and setting: with `CCC[C@@H](CO)Nc1nc(N)nc(C)c1Cc1ccc(CO)cc1OC` [Example 40, (S)-2-(2-Amino-5-(4-(hydroxymethyl)-2-methoxybenzyl)-6-methyl-pyrimidin-4-ylamino)pentan-1-ol] the figure was 20 nM; with `CCCCCNc1nc(N)nc(C)c1Cc1cccc(OCCN(C)C)c1` [Example 27, 5-(3-(2-(Dimethylamino)ethoxy)benzyl)-6-methyl-N^4-pentylpyrimidine-2,4-diamine], 398 nM; with `CCC[C@@H](CO)Nc1nc(N)nc(C)c1Cc1ccc(C(=O)OCCCCN(C)C)cc1OC` [Example 15, (S)-4-(Dimethylamino)butyl 4-((2-amino-4-(1-hydroxypentan-2-yl-amino)-6-methylpyrimidin-5-yl)methyl)-3-methoxybenzoate benzenesulfonate salt], 126 nM.
With `CCCCCNc1nc(N)nc(C)c1Cc1ccc(OCCN2CCCC2)cc1` [Example 6, 6-Methyl-N^4-pentyl-5-(4-(2-(pyrrolidin-1-yl)ethoxy)benzyl)pyrimidine-2,4-diamine], the EC50 was 100 nM.
The same measure, in the same setting: with `CCCCCNc1nc(N)nc(C)c1Cc1cccc(OCCN2CCCC2)c1` [Example 28, 6-Methyl-N^4-pentyl-5-(3-(2-(pyrrolidin-1-yl)ethoxy)benzyl)pyrimidine-2,4-diamine] the figure was 1260 nM.
Still for that read-out and setting: with `CCCCCNc1nc(N)nc(C)c1Cc1ccccc1OC` [Example 19, 5-(2-Methoxybenzyl)-6-methyl-N4-pentylpyrimidine-2,4-diamine] the figure was 63.1 nM; with `CCCCCNc1nc(N)nc(C)c1Cc1ccccc1OCC` [Example 21, 5-(2-Ethoxybenzyl)-6-methyl-N^4-pentylpyrimidine-2,4-diamine], 316 nM.
For the compound `CCCCCNc1nc(N)nc(C)c1Cc1ccccc1O` [Example 20, 2-((2-Amino-4-methyl-6-(pentylamino)pyrimidin-5-yl)methyl)phenol], the EC50 is 126 nM.
Still for that read-out and setting: under `CCCCCNc1nc(N)nc(C)c1Cc1ccc(CCCN(C)C)cc1` [Example 31, 5-(4-(3-(Dimethylamino)propyl)benzyl)-6-methyl-N^4-pentylpyrimidine-2,4-diamine] stands 100 nM; under `CCCCCNc1nc(N)nc(C)c1Cc1cccc(OC)c1` [Example 23, 5-(3-Methoxybenzyl)-6-methyl-N4-pentylpyrimidine-2,4-diamine], 2510 nM; under `CCCCCNc1nc(N)nc(C)c1Cc1ccc(OCCCN2CCOCC2)cc1OC` [Example 37, 5-(2-Methoxy-4-(3-morpholinopropoxy)benzyl)-6-methyl-N^4-pentylpyrimidine-2,4-diamine], 7.94 nM.
Take `COC(=O)Cc1cccc([C@@H](CCO)Nc2nc(N)nc(C)c2Cc2ccc(OCCCN(C)C)cc2OC)c1` [Example 35, (R)-Methyl 2-(3-(1-(2-amino-5-(4-(3-(dimethylamino)propoxy)-2-methoxybenzyl)-6-methylpyrimidin-4-ylamino)-3-hydroxypropyl)phenyl)acetate]: the concentration for a half-maximal effect (EC50) was 316 nM.
Still for that read-out and setting: with `CCCCCNc1nc(N)nc(C)c1Cc1cc(C(=O)OC)ccc1OC` [Example 16, Methyl 3-((2-amino-4-methyl-6-(pentylamino)pyrimidin-5-yl)methyl)-4-methoxybenzoate] the figure was 50.1 nM; with `CCCCCNc1nc(N)nc(C)c1Cc1ccc(C#CCN(C)C)cc1` [Example 30, 5-(4-(3-(Dimethylamino)prop-1-ynyl)benzyl)-6-methyl-N4-pentyl-pyrimidine-2,4-diamine], 100 nM.
Turning to `CCCCCNc1nc(N)nc(C)c1Cc1ccc(OCCN2CCCCC2)cc1` [Example 5, 6-Methyl-N^4-pentyl-5-(4-(2-(piperidin-1-yl)ethoxy)benzyl)pyrimidine-2,4-diamine], the EC50 is 126 nM.
